The results in this text go back to ChEMBL document CHEMBL1152706, “Stieglitz rearrangement of N,N-dichloro-beta,beta-disubstituted taurines under mild aqueous conditions” (Bioorg Med Chem Lett, 2009).

Type in all cases: physicochemical
What all share (conditions): buffer

Data set [1] can be described thus: Chemical stability assessed as half life at pH 4 at 40 degC.
Data set [2] can be described thus: Chemical stability assessed as half life at pH 7 at 40 degC.
Data set [3] is described as follows: Chemical stability assessed as half life at pH 4 at 25 degC.

As for `O=S(=O)([O-])CCCCCN(Cl)Cl.[Na+]`, the figures for the half-life in data set [1] and in data set [2] were 120 h and 24 h, respectively.
With `CC(C)(CS(=O)(=O)[O-])N(Cl)Cl.[Na+]`, in data set [1], the t1/2 is recorded as more than 2 yr.
For `O=S(=O)([O-])CCCCN(Cl)Cl.[Na+]`, the half-life in data set [3] is 6 h.
On to `CCC(CC)(CS(=O)(=O)[O-])N(Cl)Cl.[Na+]`, for which the half-life in data set [1] was 24 h; in data set [2], 12 h.
For `CCCC(CCC)(CS(=O)(=O)[O-])N(Cl)Cl.[Na+]`, in that order: 12 h and 48 h.
As to `CC(C)C(CS(=O)(=O)[O-])(C(C)C)N(Cl)Cl.[Na+]`, the half-life in data set [3] is less than 0.167 h.
Take `O=S(=O)([O-])CCCCCCN(Cl)Cl.[Na+]`: the half-life in data set [1] was 168 h.
Still for that read-out and setting: as for `O=S(=O)([O-])CCCCCCCN(Cl)Cl.[Na+]`, the figure is 48 h.
As for `COCC(C)(CS(=O)(=O)[O-])N(Cl)Cl.[Na+]` (centres undefined), the half-life in data set [3] is 36 h.
Turning to `CC1(C)CC(C)(C)CC(CS(=O)(=O)[O-])(N(Cl)Cl)C1.[Na+]`, the half-life in data set [1] is 24 h.
`O=S(=O)([O-])CCOCCN(Cl)Cl.[Na+]`: the half-life in data set [3] is less than 24 h.
